Values of other authors in US8188245B2, “Enduracidin biosynthetic gene cluster from streptomyces fungicidicus” (priority 2006, dated 2012).

Assays:
[1] = tested on: MRSA
[2] = tested on: vancomycin resistant bacteria
[3] = tested on: Gram-positive organisms, including MRSA
[4] = tested on: S. aureus (100 strains, including 40% MRSA); conditions: 100 strains of S. aureus

Substance: Enduracidin
- Toxicity or side effects ([1]; in vivo): No toxicity or side effects were reported
- Efficacy in humans ([1]; urinary tract and skin infections caused by MRSA): effective
- Antibacterial activity [2]: active
- Type of antibacterial effect ([3]; in vitro): bactericidal
- Minimal inhibitory concentrations (MICs) ([3]; wide spectrum of primarily Gram-positive organisms, lowest MICs ("as low as")): ≥ 0.05 µg/mL
- Antibacterial activity ([3]; wide variety of Gram-positive bacteria, including VRE and MRSA): active
- Concentration that no strain was able to survive [4]: 1 µg/mL
